Measurements taken from paper PMC8232621, “Antimicrobial Activity of a Library of Thioxanthones and Their Potential as Efflux Pump Inhibitors” (Pharmaceuticals, 2021).

What was measured:
S. aureus 272123 = test: Real-time ethidium bromide accumulation assay (efflux pump inhibition); type: cell-based, Staphylococcus aureus; set-up: key: RFI = (RFtreated − RFuntreated)/RFuntreated at minute 60; details: compounds 50 µM, reserpine 25 µM, minute 60, EB 1 µg/mL
Experimental: (§1) The relative fluorescence index (RFI) was calculated based on the means of relative fluorescence units, and theses RFIs are depicted in Table 4.
(§2) The compounds were evaluated for their ability to inhibit the efflux of EB, an efflux pump substrate, in Salmonella enterica serovar Typhimurium SE03 and S. aureus 272123 strains, through real-time fluorimetry, monitoring the intracellular accumulation of EB, an efflux pump substrate. This was determined by the automated method using a CLARIOstar Plus plate reader (BMG Labtech, Ortenberg, Germany). Reserpine and CCCP were applied at 25 µM as positive controls, and the solvent DMSO was applied at 1% v/v. The bacterial strains were incubated in an appropriate culture media (TSB–S. aureus 272123; LB-B–SE03) at 37 °C until they reached an optical density (OD) of 0.6 at 600 nm. The culture was centrifuged at 13,000× g for 3 min, and the pellet was washed and resuspended with phosphate buffered saline (PBS, pH 7.4). The suspension was centrifuged again in the same conditions and resuspended in PBS.
(§3) Then, 50 µL of this solution were transferred into a 96-well black microtiter plate (Greiner Bio-One Hungary Kft, Mosonmagyaróvár, Fertősor, Hungary), and 50 µL of bacterial suspension (OD600 = 0.6) were added to each well. The plates were placed into the CLARIOstar plate reader, and the fluorescence was monitored at excitation and emission wavelengths of 530 nm and 600 nm, respectively, every minute for one hour on a real-time basis. From the real-time data, the activity of the compounds, namely the relative fluorescence index (RFI) of the last time point (minute 60) of the EB accumulation assay, was calculated according to the following equation:(1) RFI=RFtreated−RFuntreated/RFuntreated where RFtreated is the relative fluorescence (RF) at the last time point of EB accumulation curve in the presence of the compound, and RFuntreated is the RF at the last time point of the EB accumulation curve of the untreated control, having only the solvent (DMSO) control. The accumulation curves were designed using Microsoft Excel®. The samples were tested in triplicate, and the RFI presented comes from the average of these three values. The accumulation graphs present the mean of the RF at the last time point. The standard deviation (SD) was calculated automatically and included in the RF graphs.

SE03 = test: as above; type: cell-based, Salmonella enterica serovar Typhimurium SL1344; details: compounds 50 µM (compound 12 at 17 µM), CCCP 25 µM, minute 60, EB 1 µg/mL
Experimental: as §1, §2, §3

E. coli ATCC 25922 = test: Antibacterial activity, broth microdilution MIC; type: cell-based; details: Escherichia coli, ATCC25922, read-out: Minimum Inhibitory Concentration (MIC)
From the text: (§4) The referred library of thioxanthones was initially tested for their antimicrobial activity against six bacterial strains: the Gram-negative Escherichia coli ATCC 25922, Pseudomonas aeruginosa ATCC 27853 and Salmonella enterica serovar Typhimurium SL1344 (SE03), with the acrA gene deleted, and the Gram-positive Staphylococcus aureus ATCC 29213, Enterococcus faecalis ATCC 29212 and the methicillin and ofloxacin-resistant clinical isolate S. aureus 272123. For the synergy assay, two clinically relevant isolates were used: the extended-spectrum β-lactamase (ESBL)-producing E. coli SA/2 [23] and the vancomycin-resistant E. faecalis (VRE) B3/101 [23]. The antibiotics used were cefotaxime (CTX) and vancomycin (VAN), respectively.
(§5) The minimum inhibitory concentration (MIC) for each compound was determined by broth microdilution method in a 96-well plate according to the Clinical and Laboratory Standard Institute (CLSI) guidelines. The medium used was MHB II. The concentrations tested ranged from 100 µM to 0.195 µM and were prepared from a stock solution of 10 mM in DMSO, for S. aureus 272123 and SE03; for the other strains, the concentrations tested ranged from 64 µg/mL to 4 µg/mL and were prepared from a stock solution of 10 mg/mL in DMSO. DMSO was used in subinhibitory concentrations (1% v/v). The MIC was determined by visual inspection.

P. aeruginosa ATCC 27853 = test: Antibacterial activity, broth microdilution MIC; type: cell-based; details: Pseudomonas aeruginosa, ATCC27853, read-out: Minimum Inhibitory Concentration (MIC)
From the text: as §4, §5

E. coli SA/2 = test: Synergy with cefotaxime (antibiotic MIC in presence of compound); type: cell-based
From the text: as §4
The combined effect of the compounds and clinically relevant antimicrobial drugs was evaluated by determining the antibiotic’s MIC in the presence of each compound. […] The antibiotic tested was serially diluted, whereas the concentration of each compound was kept fixed. […]

Caco-2 cells = test: Cytotoxicity in Caco-2 cells, neutral red (NR) uptake assay; type: cell-based, human; details: 24 h after exposure
Experimental: Caco-2 cells were routinely cultured in 75 cm^2 flasks using DMEM with 4.5 g/L glucose supplemented with 10% FBS, 1% NEAA and 1% antibiotic. Cells were maintained at 37 °C, in a 5% CO2 and 95% air atmosphere, and the cell culture medium was changed every 2−3 days. Cultures were passaged weekly by trypsinization (0.25% trypsin/1 mM EDTA). In all experiments, the cells were seeded at a density of 60,000 cells/cm^2 and used three days after seeding, when confluence was reached. The cells used in all experiments were taken between the 55th and 64th passages.
The compounds’ (0−20 μM) cytotoxicity was evaluated by the neutral red (NR) uptake and Sulforhodamine B (SRB) binding assays, 24 h after exposure. Caco-2 cells were seeded onto 96-well plates at a density of 60,000 cells/cm^2 and exposed, after reaching confluence (three days after seeding), to the compounds (0–20 μM), in a fresh cell culture medium. Triton™ X-100 (0.1%) was used as a positive control.
The NR assay is based on the ability of viable cells to incorporate and bind the supravital dye NR into the lysosomes, thus providing a quantitative estimation of the number of viable cells in a culture. Twenty-four hours after exposure to the compounds, the cell culture medium was removed, followed by the addition of fresh cell culture medium containing 50 μg/mL NR, and incubation at 37 °C in a humidified 5% CO2 and 95% air atmosphere, for 90 min. After this incubation period, the cell culture medium was removed, the dye absorbed only by viable cells extracted with absolute ethyl alcohol/distilled water (1:1) with 5% acetic acid, and the absorbance measured at 540 nm in a multiwell plate reader (PowerWaveX BioTek Instruments, VT, USA). The percentage of NR uptake relatively to that of the control cells (0 µM) was used as the cytotoxicity measure. Five independent experiments were performed, in triplicate.

SMILES | RFI ± SD (S. aureus 272123) | RFI ± SD (SE03) | MIC (E. coli ATCC 25922) [µM] | MIC (P. aeruginosa ATCC 27853) [µM] | decrease in the MIC of CTX (E. coli SA/2) [fold] | NR uptake (relative to control cells) (Caco-2 cells; 10 µM) [%] | NR uptake (relative to control cells) (Caco-2 cells; 20 µM)
CCCOc1ccc(NCCN(CC)CC)c2c(=O)c3ccccc3sc12 [Compound 2] | 0.75 ± 0.08 | −0.02 ± 0.04 |  |  |  |  | 
CCCOc1ccc(N2CCCCC2)c2c(=O)c3ccccc3sc12 [Compound 3] | 1.50 ± 0.04 | 0.67 ± 0.01 |  |  |  |  | 
CCCOc1ccc(Nc2nc(C)cc(C)n2)c2c(=O)c3ccccc3sc12 [Compound 8, 1-[(4,6-Dimethylpyrimidin-2-yl)amino]-4-propoxy-9H-thioxanthen-9-one] | 0.24 ± 0.07 | 0.74 ± 0.08 | > 100 | > 100 | 4 |  | 
CCCOc1ccc(N2CCNC(=O)C2)c2c(=O)c3ccccc3sc12 [Compound 9, 4-(9-Oxo-4-propoxy-9H-thioxanthen-1-yl)piperazin-2-one] | 0.14 ± 0.02 | 1.54 ± 0.09 | > 100 | > 100 |  |  | 
CCCOc1ccc(NCCO)c2c(=O)c3ccccc3sc12 [Compound 10, 1-[(2-Hydroxyethyl)amino]-4-propoxy-9H-thioxanthen-9-one] | 4.71 ± 0.78 | 6.00 ± 0.80 | > 100 | > 100 | 4 |  | 
CCCOc1ccc(NCCN2CCOCC2)c2c(=O)c3ccccc3sc12 [Compound 11, 1-[(2-Morpholinoethyl)amino]-4-propoxy-9H-thioxanthen-9-one] | 0.89 ± 0.06 | 1.37 ± 0.054 | > 100 | > 100 |  |  | 
CCCOc1ccc(NS(=O)(=O)c2ccc(C(=O)O)cc2)c2c(=O)c3ccccc3sc12 [Compound 12, 4-[N-(9-Oxo-4-propoxy-9H-thioxanthen-1-yl)sulfamoyl]benzoic acid] | 0.29 ± 0.19 | −0.21 ± 0.07 | > 100 | > 100 | 16 |  | 
CCCOc1ccc(NS(=O)(=O)c2ccc(N)cc2)c2c(=O)c3ccccc3sc12 [Compound 13, 4-Amino-N-(9-oxo-4-propoxy-9H-thioxanthen-1-yl)benzenesulfonamide] | −0.18 ± 0.05 | 1.23 ± 0.18 | > 100 | > 100 |  | 95.5 | no significant effect
CCCOc1ccc(Br)c2c(=O)c3ccccc3sc12 [Compound 14, 1-Bromo-4-propoxy-9H-thioxanthen-9-one] | 1.13 ± 0.13 | 0.87 ± 0.11 | > 100 | > 100 |  |  | 
CCCOc1ccc2ncnc3c2c1Sc1ccccc1-3 [Compound 15] | −0.07 ± 0.50 | 0.54 ± 0.11 | > 100 | > 100 |  |  | 92.2%
CCCOc1ccc2nc(N)nc3c2c1Sc1ccccc1-3 [Compound 16] | 0.96 ± 0.27 | 7.52 ± 0.01 | > 100 | > 100 |  |  | 94.1%
CCCOc1ccc2nc(NCc3ccccc3Cl)nc3c2c1Sc1ccccc1-3 [Compound 17] | 9.69 ± 0.95 | 25.51 ± 2.93 | > 100 | > 100 |  |  | 95.5%
CCCOc1ccc2c3c(n/c(=N\c4ccccc4C)n2-c2ccccc2C)-c2ccccc2Sc13 [Compound 18] | 0.20 ± 0.03 | 0.20 ± 0.02 | > 100 | > 100 | 4 |  | 
